Test results published in patent US9334256B2, “Agents and methods for treating ischemic and other diseases” (NoNO INC., priority 2011, dated 2016).

Columns and labels:
TRPM7 [1] = target: TRPM7 (Homo sapiens, UniProt Q96QT4); settings: Nadler et al., Jiang et al.; read-out: IC50 for inhibition of TRPM7; cited from earlier work
TRPM7 [2] = target: T1, TRPM7 (Mus musculus, UniProt Q923J1); assay: PI uptake cell death assay in TRPM7-expressing HEK-293 cells (type of assay from Example 1); assay type: cell-based, murine
T1 construct: expressed in transfected cells; host or cells: HEK-293 tSA (HEK-293T) cells, transient transfection with Lipofectamine 2000
Excerpt: The TRPM7 channel provides a pathway for mono- and divalent cations into the cell, and is unique in that it contains a functional C-terminal α-kinase domain. […] The induction of chemical anoxia in host cells such as recombinant HEK293 cells can be used to activate TRPM7. This activation is detectable with the use measurements of cellular calcium accumulation. This is achievable with the use of a fluorescent calcium indicator. Alternatively, this activation can also be measured using radiolabelled Ca2+ (^45Ca^2+) as described previously by Sattler et al. (Sattler et al., 1998) and Aarts et al. (Aarts et al., 2003).
Hoechst 33342 was purchased as a 10 mg/mL solution in water (Molecular Probes Inc., Eugene, Oreg.). Propidium iodide (PI) was purchased as a powder and prepared by dissolving in PBS at 1 mg/mL. PI solutions were stored at 4° C. until use. Hoechst and PI were added directly to cell culture to 5 μg/mL and 10 μg/mL respectively. Cells were incubated at room temperature or at 37° C. for 10 minutes to allow for adequate uptake, and fluorescence observed using a NIKON Eclipse TE2000 inverted microscope and TE-FM Epi-Fluorescence attachment (Nikon Canada).
Untransfected cells or cells transfected with the TRPM7/pTracer or ΔPDZ/pTracer construct were plated onto 24-well plates, 24-hours post-transfection. Untransfected cells were plated at 0.75×10^6 cells/well and transfected cells at 1×10^6 cells/well. The plates were coated with poly-D-lysine to strengthen cell adhesion and to minimize cell loss during washes. Cells were loaded by incubation with 5 μM fluo-3 AM and 0.02% pluronic in HBSS at 37° C. for 30 minutes. Following loading, cells were washed with an aglycaemic HBSS containing, in mM: 20 N-methyl-D-glucamine (NMDG), 121 NaCl, 5 KCl, 10 HEPES acid, 10 HEPES-Na salt, 3 NaHCO3, 1 Na-pyruvate, and 1.8 CaCl2, pH adjusted to 7.4 with HCl. Calcium uptake, as assessed by fluo-3 fluorescence, was measured in response to 0, 5, 10, 15, 20, or 25 mM sodium cyanide (NaCN; Mallinckrodt Baker Inc., Phillipsburg, N.J.) dissolved in aglycaemic HBSS. A 250 mM NaCN stock was prepared in water and stored at room temperature for up to 2 weeks. Measurements of fluo-3 fluorescence were taken over a 2 hour period at 10 minutes intervals at room temperature (22-25° C.). Calcium uptake assays were performed 48 hours post-transfection.
Cell death, as assessed by PI uptake, was examined at the end of the 2 hour calcium uptake assay. Cells were stained with 10 μg/mL PI and PI fluorescence measured using the Fluoroskan microplate reader (λ excitation=590 nm, λ emission=630 nm) and accompanying Ascent software (Thermo Electron Corp.). To obtain a reading of maximal fluorescence (Fmax), 0.5% Triton X-100 was added to each well and allowed to incubate for 20 minutes. Cell death assays were performed 48 hours post-transfection.
Data was entered into Excel (Microsoft, Seattle, Wash.) or SigmaPlot (SPSS Inc., Chicago, Ill.) for analysis. Pooled data are presented as the mean of at least 3 separate experiments±sem. Calcium uptake is expressed as a fraction of baseline uptake: ΔFt=(Ft−Fo)/Fo where Ft is the fluorescence at time t, and Fo is the fluorescence at baseline. Cell death is expressed as a percentage of total cell death: cell death (%)=Ft/Fmax×100 where Ft is the fluorescence at time t and Fmax is the maximal fluorescence obtained by permeabilization with Triton X-100. Concentration-response curves were fit by nonlinear regression with a 4 parameter logistic curve represented by the following equation: y=min+{(max−min)/[1+(x/EC50)n]} where y is the response at concentration x, min is the minimal response, max is the maximal response, EC50 is the concentration required for half-maximal response, and n is the Hill slope. Statistical analysis of data was carried out with a two-tailed Student's t test, or a one-way analysis of variance (ANOVA) followed by post hoc pairwise multiple comparisons testing using the Holm-Sidak method, where appropriate. […]

TRPM7 ion channel = target: T2, TRPM7 ion channel (Mus musculus, UniProt Q923J1); assay: Whole-cell patch clamp of TRPM7 currents in HEK293 cells; assay type: cell-based; settings: value shown = concentration at which the compound significantly inhibits the ion channel
T2 construct: expressed in transfected cells; host or cells: TRPM7-tet-on HEK293 cells
Procedure: To further understand the structure function relationships between the TRPM7 inhibitors identified in the TRPM7-dependent HEK death assay, the activity of a subset of these inhibitors described herein were tested for their ability to inhibit TRPM7 currents in cell systems. Whole-cell patch clamp recordings were used essentially as described to test the TRPM7 inhibitors in HEK293 cells, H9c2 cardiomyocytes and cultured neurons. […] Those that provide >10% inhibition of TRPM7 channel activity in the HEK293 cell system were labeled with the concentration tested (generally 5 uM). Thus, the compounds in this table marked with such a value are able to block the activity gof the TRPM7 ion channel. FIGS. 2A-C provide an example of this for the TRPM7 inhibitor 399 (Structure 9). […] Numbers in brackets indicate the number of independent tests, and the bars represent the SEM.
Whole-cell currents were recorded using an Axopatch 1D or MultiClamp 700B amplifier and were digitized at 10 kHz and low-pass filtered at 2 kHz, at room temperature. pClamp10 software was used for data acquisition and analysis. Patch electrodes were pulled from Borosilicate glass and fire polished to a resistance of 2-4 MΩ. All drugs were administrated directly to cell bodies under recording through the fast exchange perfusion system.
The intracellular solution (ICS) contains (mM) 145 Cs-methanesulfonate, 8 NaCl, l MgCl2, 4.1 CaCl2, 10 EGTA, and 10 HEPES, 5 ATP, pH at 7.4, with 300-305 mOsm. The extracellular solution (ECS) contains (mM) 140 NaCl, 5 KCl, 2 CaCl2, 20 HEPES, and 10 glucose, pH at 7.4 and with 315-320 mOsm.
Voltage stimuli lasting 250 ms were delivered at 5-s intervals with voltage ramps ranging from −100 to +100 mV. The current values at −80 mV and +80 mV on I-V curve represent the measures of inward and outward current respectively.
(§1) Table X and FIGS. 7-51 show screening data for several additional compounds that are variants of M5, M6 or M21. The synthesis of compounds of Table X and FIGS. 7-51 is shown in Appendices A-C. The compounds shown in FIGS. 7-51 can be related to the appropriate row of Table X by the compound number shown in the figures and in the first column of Table X. The compounds in Table X other than M5, M6 and M21 themselves, are believed to be novel. The Table provides a number identifying the compound, its structurer, molecular weight and its cluster (i.e., whether the compound resembles M5, M6 or M21). The three columns relations to PI uptake describe the results of screening the compounds in the type of assay from Example 1. […] The last two columns show an effect on proliferation of Weri retinoblastoma or HeLa cervical cancer cells. Inhibition of proliferation is a measure of anti-neoplastic activity. […] If no data is shown, no test was performed.

Weri cells = assay: Cell proliferation assay, Weri retinoblastoma cells; assay type: cell-based
Procedure: (§2) Cells were grown to 70% confluency, trypsinized, counted, and seeded in 96-well flat-bottom plates at a final concentration of 2.5×10^3-5.0×10^3 cells/well in growth media containing 5% FBS (Day 0). Other well sizes and cell densities were used successfully as well. Cells were allowed to incubate in growth media for 24 hours to allow for maximum adhesion. Treatment with the test agent began on Day 1 and continued for 72 hours either with or without retreatment. At the 72 hour time point, viable cell numbers are quantified by the CellTiter-Glo® cell viability assay as described above, or using standard MTT, SRB or BrDU assays. Experiments were repeated at least twice with the same concentrations to determine growth inhibitory activity. […] In an alternative format, this assay was used to screen potential TRPM7 inhibitory compounds at a fixed concentration, usually 5 or 10 uM. Alternatively, lower or higher concentrations were used. […] Thus, for the compounds in Table 1, all are potential anti-cancer agents. Some, like 399 and 509, are more general and may be effective against a wide range of cancers. Others, like 2785, are more specific and may be effective against a subset of cancers.
(§3) Data Collection—For the cell proliferation studies, data from each experiment was collected and expressed as % Cell Growth using the following calculation: % Cell Growth=(ftest/fvehicle)×100 Where ftest is the luminescent signal of the tested sample, and fvehicle is the luminescence of the vehicle in which the drug is dissolved (or appropriate measure for the other viability/proliferation measures). Dose response graphs and IC50 values were generated using standard software using the following variable slope equation: […]
as §1

cancer cell lines = assay: Cell proliferation studies, cancer cell lines in general; assay type: cell-based; settings: summary statement
Procedure: as §2, §3

[3] = tested on: neurons, hepatocytes, cardiomyocytes, retina; assay: Survival after anoxia in cells and tissues; assay type: cell-based; settings: summary statement
[4] = Table X, the lower the number, the more potent in protecting against cell death
[5] = Table X, the lower the number, the more potent
[6] = Table Y, commercially available compounds

T2 sequence (Q923J1 whole entry): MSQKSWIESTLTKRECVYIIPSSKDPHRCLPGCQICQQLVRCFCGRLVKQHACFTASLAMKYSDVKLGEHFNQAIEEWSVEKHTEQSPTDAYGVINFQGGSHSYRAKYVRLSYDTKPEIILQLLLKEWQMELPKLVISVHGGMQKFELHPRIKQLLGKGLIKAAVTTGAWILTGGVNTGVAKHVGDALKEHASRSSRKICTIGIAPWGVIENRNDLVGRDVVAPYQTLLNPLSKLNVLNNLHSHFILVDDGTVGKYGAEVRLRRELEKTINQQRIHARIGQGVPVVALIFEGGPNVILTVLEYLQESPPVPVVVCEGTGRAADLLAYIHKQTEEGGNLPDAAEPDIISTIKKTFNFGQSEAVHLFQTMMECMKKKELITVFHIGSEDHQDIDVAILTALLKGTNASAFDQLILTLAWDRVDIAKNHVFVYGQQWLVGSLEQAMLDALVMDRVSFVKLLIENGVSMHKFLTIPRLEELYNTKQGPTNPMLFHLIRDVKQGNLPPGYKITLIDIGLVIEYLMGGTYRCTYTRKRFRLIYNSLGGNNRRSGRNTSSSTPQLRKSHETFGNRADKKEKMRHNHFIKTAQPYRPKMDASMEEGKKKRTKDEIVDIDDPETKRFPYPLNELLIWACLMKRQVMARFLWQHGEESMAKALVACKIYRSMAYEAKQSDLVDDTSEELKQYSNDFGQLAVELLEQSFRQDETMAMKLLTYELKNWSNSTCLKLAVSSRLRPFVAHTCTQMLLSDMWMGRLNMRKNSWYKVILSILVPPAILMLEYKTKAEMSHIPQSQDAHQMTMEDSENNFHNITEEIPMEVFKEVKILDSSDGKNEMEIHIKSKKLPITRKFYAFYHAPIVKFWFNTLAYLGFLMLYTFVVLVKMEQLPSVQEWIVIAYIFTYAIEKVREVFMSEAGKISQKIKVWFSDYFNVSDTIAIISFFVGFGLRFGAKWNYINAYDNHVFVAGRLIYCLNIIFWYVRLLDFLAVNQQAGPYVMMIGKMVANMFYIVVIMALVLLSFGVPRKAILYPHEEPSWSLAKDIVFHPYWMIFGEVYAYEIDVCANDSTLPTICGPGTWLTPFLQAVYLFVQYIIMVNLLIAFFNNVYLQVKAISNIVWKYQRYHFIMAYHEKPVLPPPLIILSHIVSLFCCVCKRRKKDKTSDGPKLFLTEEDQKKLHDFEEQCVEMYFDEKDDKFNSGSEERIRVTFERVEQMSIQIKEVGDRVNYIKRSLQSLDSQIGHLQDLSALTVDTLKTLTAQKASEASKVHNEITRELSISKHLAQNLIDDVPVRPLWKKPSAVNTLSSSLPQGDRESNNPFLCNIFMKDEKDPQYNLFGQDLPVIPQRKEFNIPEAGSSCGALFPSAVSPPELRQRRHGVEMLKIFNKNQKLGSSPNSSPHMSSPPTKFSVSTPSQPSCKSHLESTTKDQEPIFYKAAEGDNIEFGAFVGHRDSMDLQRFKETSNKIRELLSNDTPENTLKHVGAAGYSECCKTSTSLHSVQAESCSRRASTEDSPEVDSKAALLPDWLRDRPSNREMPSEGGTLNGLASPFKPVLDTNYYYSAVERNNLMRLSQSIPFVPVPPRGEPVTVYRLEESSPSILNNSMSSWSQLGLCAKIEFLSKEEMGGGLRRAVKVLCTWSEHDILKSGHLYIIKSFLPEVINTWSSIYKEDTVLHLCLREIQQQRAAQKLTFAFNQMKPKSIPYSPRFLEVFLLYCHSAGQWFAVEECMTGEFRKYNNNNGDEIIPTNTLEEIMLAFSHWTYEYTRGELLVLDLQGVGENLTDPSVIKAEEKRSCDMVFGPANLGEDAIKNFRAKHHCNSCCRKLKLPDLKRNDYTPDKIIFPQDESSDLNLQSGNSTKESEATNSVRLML
T1 sequence (Q923J1 whole entry): as above
Chain of TRPM7 (Homo sapiens, UniProt Q96QT4) (Q96QT4 whole entry, species assumed): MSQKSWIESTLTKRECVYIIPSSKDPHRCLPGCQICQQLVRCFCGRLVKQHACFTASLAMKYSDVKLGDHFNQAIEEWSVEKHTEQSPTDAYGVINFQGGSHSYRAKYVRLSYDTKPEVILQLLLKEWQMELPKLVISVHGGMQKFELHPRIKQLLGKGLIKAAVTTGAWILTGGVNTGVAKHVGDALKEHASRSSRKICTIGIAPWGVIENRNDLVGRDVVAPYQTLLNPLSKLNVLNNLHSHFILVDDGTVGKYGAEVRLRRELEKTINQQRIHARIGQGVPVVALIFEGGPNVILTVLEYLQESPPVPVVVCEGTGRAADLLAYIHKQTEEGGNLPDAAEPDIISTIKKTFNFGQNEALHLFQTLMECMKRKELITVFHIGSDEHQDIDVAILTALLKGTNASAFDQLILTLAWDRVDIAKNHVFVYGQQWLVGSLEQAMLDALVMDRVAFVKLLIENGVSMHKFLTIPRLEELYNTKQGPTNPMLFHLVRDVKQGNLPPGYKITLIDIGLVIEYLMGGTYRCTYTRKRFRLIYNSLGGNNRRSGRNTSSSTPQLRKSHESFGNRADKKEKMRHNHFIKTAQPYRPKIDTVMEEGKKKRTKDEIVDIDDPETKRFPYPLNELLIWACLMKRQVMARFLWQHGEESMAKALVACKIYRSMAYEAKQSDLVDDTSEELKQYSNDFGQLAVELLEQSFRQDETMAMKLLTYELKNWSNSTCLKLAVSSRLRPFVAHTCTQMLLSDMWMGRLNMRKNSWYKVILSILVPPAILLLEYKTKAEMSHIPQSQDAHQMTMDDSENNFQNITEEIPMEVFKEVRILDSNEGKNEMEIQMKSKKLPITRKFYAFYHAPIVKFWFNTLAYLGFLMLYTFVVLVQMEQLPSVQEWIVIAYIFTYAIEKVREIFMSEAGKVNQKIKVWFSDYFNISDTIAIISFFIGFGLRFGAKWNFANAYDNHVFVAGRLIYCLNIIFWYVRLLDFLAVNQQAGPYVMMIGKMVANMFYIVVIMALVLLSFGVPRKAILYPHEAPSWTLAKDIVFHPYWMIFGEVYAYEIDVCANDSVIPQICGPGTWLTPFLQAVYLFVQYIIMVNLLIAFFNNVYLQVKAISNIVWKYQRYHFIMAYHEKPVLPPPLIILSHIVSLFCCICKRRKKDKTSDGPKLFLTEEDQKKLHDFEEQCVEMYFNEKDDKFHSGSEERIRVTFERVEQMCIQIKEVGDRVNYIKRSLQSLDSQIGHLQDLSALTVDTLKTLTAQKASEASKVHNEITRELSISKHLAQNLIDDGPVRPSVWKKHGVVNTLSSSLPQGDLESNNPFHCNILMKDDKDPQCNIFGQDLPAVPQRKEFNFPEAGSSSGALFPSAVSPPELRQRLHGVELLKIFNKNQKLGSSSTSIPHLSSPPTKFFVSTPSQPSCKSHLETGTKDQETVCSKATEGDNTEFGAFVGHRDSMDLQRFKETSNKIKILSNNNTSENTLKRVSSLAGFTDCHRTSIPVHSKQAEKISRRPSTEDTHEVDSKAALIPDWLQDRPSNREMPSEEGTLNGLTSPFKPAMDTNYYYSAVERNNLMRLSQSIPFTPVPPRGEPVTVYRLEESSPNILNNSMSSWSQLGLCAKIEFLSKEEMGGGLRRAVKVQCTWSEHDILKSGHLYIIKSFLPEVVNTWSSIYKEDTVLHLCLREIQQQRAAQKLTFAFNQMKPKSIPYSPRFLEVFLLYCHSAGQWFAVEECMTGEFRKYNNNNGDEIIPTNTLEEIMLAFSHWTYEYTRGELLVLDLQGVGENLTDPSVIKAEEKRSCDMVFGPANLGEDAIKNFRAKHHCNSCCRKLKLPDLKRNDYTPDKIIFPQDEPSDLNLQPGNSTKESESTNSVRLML

For `[Mg+2]` [Mg^2+, magnesium], the IC50 (TRPM7 [1]) is listed as ~600 µM.

In the case of `Fc1cccc2c1CCNC2c1sc2ccccc2c1Cl` (stereo not drawn) [Compound 123], the “Normalized ratio of PI uptake (5 μM)” value (TRPM7 [2]; [4]) is reported as 0.356, the “Normalized ratio of PI uptake (10 μM)” value (TRPM7 [2]; [5]) is reported as 0.128 and the IC50 (TRPM7 [2]; Table X) is reported as 4.18 µM. The TRPM7 current (TRPM7 ion channel) was 5 μM (Those that provide >10% inhibition of TRPM7 channel activity in the HEK293 cell system were labeled with the concentration tested (generally 5 uM)).

For `COc1ccccc1C(C)N(C)C(=O)c1cc2ccccc2s1` (stereo not drawn) [T6681713 #6, reference compound], the inhibition at 5 µM (Weri cells) was 9%, the inhibition at 10 µM (Weri cells) was 33% and the “Normalized ratio of PI uptake (5 μM)” value (TRPM7 [2]; [6]) was 0.328. The “Normalized ratio of PI uptake (10 μM)” value (TRPM7 [2]; [6]) was 0.059 and the IC50 (TRPM7 [2]; [6]) was 5.48 µM.

With `COc1cc2c(cc1OC)C(c1sc3ccccc3c1Cl)=NCC2` [Compound M6] the “inhibition of proliferation of cancer cell lines” value (cancer cell lines) was “effective in inhibiting proliferation of various cancer cell lines” and the survival after anoxia [3] was “effective in increasing survival after anoxia in neurons and cardiomyocytes”.

With `Cc1c(Cc2ccc(Cl)c(Cl)c2)c(=O)oc2cc(O)cc(O)c12` [Compound 131] the “Normalized ratio of PI uptake (5 μM)” value (TRPM7 [2]; [4]) was 0.29, the “Normalized ratio of PI uptake (10 μM)” value (TRPM7 [2]; [5]) was 0.03 and the IC50 (TRPM7 [2]; Table X) was 3.42 µM. For the same compound, the TRPM7 current (TRPM7 ion channel) was 5 μM (Those that provide >10% inhibition of TRPM7 channel activity in the HEK293 cell system were labeled with the concentration tested (generally 5 uM)).

For `COc1ccc2cc(C(=O)N(C)Cc3ccccc3N3CCCC3)[nH]c2c1` [T6899266 #9, reference compound], the inhibition at 5 µM (Weri cells) was 18%, the inhibition at 10 µM (Weri cells) was 42% and the “Normalized ratio of PI uptake (5 μM)” value (TRPM7 [2]; [6]) was 0.029. For the same compound, the “Normalized ratio of PI uptake (10 μM)” value (TRPM7 [2]; [6]) was 0 and the IC50 (TRPM7 [2]; [6]) was 2.32 µM.

With `Cc1ccc2c(c1)CCCN2C(=O)c1sc2ccccc2c1Cl` [Compound M5] the “inhibition of proliferation of cancer cell lines” value (cancer cell lines) was “effective in inhibiting proliferation of various cancer cell lines” and the survival after anoxia [3] was “effective in increasing survival after anoxia in neurons, hepatocytes, cardiomyoctes, and retina”.

For `Cc1cccc2sc(C3=NCCc4c(F)cccc43)c(Cl)c12` [Compound 117], the “Normalized ratio of PI uptake (5 μM)” value (TRPM7 [2]; [4]) was 0.02, the “Normalized ratio of PI uptake (10 μM)” value (TRPM7 [2]; [5]) was 0.07 and the IC50 (TRPM7 [2]; Table X) was 1.67 µM. For the same compound, the TRPM7 current (TRPM7 ion channel) was 5 μM (Those that provide >10% inhibition of TRPM7 channel activity in the HEK293 cell system were labeled with the concentration tested (generally 5 uM)).
